Test results published in ChEMBL document CHEMBL4507319 (2021).

How the values were obtained:
Details in all cases: Compound concentration 1.0 uM
[1] = target: Phosphatidylinositol 4,5-bisphosphate 3-kinase catalytic subunit gamma isoform (Homo sapiens) (UniProt P48736); assay: PI3 Kinase (p120g)(h) Eurofins kinase panel
[2] = target: T1, Serine/threonine-protein kinase STK11 (Homo sapiens) (UniProt Q15831); assay: LKB1(h) Eurofins kinase panel
T1 sequence (whole entry): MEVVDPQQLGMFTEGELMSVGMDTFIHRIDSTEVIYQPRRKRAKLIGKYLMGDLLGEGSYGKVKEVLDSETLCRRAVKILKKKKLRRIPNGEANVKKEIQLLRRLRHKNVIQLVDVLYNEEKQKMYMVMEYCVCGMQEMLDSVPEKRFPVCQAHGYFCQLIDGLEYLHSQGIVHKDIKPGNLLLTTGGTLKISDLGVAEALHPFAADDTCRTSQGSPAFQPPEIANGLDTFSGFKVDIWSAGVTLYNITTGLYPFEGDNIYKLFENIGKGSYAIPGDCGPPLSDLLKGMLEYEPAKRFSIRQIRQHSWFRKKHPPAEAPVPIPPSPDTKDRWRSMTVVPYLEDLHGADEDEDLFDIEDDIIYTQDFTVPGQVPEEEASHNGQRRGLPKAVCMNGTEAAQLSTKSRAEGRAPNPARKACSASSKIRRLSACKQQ

[3] = target: Protein kinase C beta type (Homo sapiens) (UniProt P05771); assay: PKCbetaI (h) Eurofins kinase panel
[4] = target: T2, NUAK family SNF1-like kinase 2 (Homo sapiens) (UniProt Q9H093); assay: NUAK2(h) Eurofins kinase panel
T2 sequence (whole entry): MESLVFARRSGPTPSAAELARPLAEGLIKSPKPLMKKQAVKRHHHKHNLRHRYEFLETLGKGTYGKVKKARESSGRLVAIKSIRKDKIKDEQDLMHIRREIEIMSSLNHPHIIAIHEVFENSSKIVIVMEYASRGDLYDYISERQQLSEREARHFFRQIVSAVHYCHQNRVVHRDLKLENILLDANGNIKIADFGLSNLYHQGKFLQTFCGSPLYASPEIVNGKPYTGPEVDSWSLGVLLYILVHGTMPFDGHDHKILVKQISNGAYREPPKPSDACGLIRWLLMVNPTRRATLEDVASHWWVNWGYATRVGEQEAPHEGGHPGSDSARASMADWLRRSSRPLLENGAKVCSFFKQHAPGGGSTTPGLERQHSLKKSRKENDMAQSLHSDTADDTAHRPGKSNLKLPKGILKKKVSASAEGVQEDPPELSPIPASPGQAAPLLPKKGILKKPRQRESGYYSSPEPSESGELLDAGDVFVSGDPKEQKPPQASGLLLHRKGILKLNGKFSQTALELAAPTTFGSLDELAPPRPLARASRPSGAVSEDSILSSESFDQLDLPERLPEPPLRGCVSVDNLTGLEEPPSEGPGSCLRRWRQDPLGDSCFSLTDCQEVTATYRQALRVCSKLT

[5] = target: Ribosomal protein S6 kinase beta-1 (Homo sapiens) (UniProt P23443); assay: p70S6K(h) Eurofins kinase panel
[6] = target: Leukocyte tyrosine kinase receptor (Homo sapiens) (UniProt P29376); assay: LTK(h) Eurofins kinase panel
[7] = target: Calcium/calmodulin-dependent protein kinase type II subunit delta (Homo sapiens) (UniProt Q13557); assay: CaMKIIdelta(h) Eurofins kinase panel
[8] = target: T3, Serine/threonine-protein kinase BRSK2 (Homo sapiens) (UniProt Q8IWQ3); assay: BrSK2(h) Eurofins kinase panel
T3 sequence (whole entry): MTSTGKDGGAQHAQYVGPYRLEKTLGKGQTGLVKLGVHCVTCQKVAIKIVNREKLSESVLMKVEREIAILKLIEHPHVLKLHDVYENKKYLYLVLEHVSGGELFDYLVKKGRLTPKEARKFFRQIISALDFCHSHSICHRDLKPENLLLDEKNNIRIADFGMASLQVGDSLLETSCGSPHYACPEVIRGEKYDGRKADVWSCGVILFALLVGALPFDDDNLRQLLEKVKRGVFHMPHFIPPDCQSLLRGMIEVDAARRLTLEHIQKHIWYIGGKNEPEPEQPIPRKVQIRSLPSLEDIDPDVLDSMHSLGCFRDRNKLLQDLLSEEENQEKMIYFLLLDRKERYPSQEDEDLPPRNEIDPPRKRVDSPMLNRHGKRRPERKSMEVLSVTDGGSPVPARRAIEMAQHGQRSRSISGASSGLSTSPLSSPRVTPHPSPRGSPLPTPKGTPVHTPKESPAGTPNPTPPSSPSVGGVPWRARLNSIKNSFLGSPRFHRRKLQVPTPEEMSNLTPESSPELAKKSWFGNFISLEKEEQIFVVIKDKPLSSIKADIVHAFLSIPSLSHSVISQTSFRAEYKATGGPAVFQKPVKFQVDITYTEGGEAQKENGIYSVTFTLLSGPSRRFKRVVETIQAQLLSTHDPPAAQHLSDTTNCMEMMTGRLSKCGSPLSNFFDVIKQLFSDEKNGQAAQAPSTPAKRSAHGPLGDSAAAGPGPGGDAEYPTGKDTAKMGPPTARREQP

[9] = target: Dual specificity protein kinase CLK1 (Homo sapiens) (UniProt P49759); assay: CLK1(h) Eurofins kinase panel
[10] = target: Calcium/calmodulin-dependent protein kinase kinase 1 (Homo sapiens) (UniProt Q8N5S9); assay: CaMKK1(h) Eurofins kinase panel
[11] = target: T4, Serine/threonine-protein kinase haspin (Homo sapiens) (UniProt Q8TF76); assay: Haspin(h) Eurofins kinase panel
T4 sequence (whole entry): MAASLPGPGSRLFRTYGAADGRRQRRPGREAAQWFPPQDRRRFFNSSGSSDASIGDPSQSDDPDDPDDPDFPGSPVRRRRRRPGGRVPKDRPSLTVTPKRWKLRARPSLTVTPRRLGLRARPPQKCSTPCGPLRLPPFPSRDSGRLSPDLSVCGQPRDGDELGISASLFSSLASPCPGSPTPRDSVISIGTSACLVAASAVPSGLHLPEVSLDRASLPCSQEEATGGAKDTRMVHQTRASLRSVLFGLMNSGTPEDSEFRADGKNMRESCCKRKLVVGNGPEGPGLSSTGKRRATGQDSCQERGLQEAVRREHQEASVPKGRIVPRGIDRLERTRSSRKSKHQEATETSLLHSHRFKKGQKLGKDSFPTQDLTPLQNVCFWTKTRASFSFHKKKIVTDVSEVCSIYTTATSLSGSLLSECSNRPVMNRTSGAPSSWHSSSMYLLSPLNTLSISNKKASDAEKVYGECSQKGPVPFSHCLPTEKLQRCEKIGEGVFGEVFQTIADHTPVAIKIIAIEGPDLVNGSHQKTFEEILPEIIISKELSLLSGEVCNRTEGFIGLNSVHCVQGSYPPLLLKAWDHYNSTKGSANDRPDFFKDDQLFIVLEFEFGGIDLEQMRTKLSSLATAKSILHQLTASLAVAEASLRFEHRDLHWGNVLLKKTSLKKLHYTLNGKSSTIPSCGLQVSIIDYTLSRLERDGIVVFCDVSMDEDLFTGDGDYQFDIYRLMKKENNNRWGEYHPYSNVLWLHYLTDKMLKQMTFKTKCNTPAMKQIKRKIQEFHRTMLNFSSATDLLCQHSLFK

Measured: % residual kinase activity

Chain of Leukocyte tyrosine kinase receptor (Homo sapiens) (P29376 whole entry): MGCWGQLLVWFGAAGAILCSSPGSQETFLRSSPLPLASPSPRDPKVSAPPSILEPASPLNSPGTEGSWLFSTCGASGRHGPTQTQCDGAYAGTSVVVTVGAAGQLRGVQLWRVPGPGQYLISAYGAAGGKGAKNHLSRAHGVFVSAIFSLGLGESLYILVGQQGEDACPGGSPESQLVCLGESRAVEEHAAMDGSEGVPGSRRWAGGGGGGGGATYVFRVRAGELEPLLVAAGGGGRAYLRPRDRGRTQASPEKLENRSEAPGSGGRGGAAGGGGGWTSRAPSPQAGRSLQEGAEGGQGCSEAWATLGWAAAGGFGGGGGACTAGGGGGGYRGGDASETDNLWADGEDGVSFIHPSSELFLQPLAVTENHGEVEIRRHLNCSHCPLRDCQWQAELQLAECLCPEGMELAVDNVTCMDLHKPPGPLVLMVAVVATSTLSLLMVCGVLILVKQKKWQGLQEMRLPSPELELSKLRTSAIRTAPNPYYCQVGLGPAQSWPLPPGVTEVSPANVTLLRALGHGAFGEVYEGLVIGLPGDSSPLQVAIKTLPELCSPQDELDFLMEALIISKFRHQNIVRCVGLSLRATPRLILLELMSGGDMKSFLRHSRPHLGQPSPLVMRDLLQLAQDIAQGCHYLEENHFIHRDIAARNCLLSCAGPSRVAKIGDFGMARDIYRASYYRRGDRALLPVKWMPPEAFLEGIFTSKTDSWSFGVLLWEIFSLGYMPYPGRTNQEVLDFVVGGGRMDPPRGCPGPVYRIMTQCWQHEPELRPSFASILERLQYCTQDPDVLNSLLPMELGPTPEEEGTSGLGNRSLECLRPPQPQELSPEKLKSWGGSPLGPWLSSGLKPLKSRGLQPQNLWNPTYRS
Chain of Calcium/calmodulin-dependent protein kinase type II subunit delta (Homo sapiens) (Q13557 whole entry): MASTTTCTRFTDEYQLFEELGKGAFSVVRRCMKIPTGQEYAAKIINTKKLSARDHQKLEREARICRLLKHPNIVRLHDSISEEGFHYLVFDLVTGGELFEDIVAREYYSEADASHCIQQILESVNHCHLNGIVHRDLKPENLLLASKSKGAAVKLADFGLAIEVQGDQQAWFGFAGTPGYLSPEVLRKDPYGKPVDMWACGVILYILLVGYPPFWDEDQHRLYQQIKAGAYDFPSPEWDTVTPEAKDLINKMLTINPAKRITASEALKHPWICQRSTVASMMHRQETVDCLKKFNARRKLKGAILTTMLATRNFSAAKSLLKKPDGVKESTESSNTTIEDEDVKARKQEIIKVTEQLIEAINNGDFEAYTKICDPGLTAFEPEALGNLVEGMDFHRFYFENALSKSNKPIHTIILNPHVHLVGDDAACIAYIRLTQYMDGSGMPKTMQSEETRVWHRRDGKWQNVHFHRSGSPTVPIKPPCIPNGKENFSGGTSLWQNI
Chain of Ribosomal protein S6 kinase beta-1 (Homo sapiens) (P23443 whole entry, looked up): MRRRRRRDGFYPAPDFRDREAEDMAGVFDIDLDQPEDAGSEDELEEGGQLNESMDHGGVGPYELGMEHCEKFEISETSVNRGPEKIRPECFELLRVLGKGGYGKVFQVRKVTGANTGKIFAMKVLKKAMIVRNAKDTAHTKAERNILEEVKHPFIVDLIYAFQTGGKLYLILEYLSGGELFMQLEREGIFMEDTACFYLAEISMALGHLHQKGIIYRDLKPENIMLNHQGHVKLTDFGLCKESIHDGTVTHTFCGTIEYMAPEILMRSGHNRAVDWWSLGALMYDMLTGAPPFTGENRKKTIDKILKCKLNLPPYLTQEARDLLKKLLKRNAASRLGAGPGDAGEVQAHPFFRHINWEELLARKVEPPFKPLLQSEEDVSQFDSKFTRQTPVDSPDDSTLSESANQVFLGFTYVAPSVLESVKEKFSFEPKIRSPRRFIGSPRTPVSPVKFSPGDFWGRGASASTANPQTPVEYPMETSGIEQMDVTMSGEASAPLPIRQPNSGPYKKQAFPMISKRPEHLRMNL
Chain of Protein kinase C beta type (Homo sapiens) (P05771 2-671 limits assumed): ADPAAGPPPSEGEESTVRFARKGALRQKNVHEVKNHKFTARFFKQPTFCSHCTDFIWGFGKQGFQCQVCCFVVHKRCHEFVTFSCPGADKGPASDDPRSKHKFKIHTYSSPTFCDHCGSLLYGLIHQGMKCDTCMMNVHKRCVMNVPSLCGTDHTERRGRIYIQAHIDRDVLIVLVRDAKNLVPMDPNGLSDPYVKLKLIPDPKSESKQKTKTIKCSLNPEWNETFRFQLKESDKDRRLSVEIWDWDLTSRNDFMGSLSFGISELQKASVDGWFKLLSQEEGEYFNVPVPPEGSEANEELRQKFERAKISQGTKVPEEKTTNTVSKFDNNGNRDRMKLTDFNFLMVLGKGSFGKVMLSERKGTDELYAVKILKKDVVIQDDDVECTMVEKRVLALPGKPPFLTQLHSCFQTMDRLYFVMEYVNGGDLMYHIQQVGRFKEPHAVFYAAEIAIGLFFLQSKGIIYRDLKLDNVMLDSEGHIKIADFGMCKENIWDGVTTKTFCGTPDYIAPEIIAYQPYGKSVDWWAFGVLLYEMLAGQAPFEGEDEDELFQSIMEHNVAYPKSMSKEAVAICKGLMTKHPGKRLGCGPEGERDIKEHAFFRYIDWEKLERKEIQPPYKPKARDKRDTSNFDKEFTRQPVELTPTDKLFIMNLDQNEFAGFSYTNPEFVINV
Chain of Dual specificity protein kinase CLK1 (Homo sapiens) (P49759 whole entry, looked up): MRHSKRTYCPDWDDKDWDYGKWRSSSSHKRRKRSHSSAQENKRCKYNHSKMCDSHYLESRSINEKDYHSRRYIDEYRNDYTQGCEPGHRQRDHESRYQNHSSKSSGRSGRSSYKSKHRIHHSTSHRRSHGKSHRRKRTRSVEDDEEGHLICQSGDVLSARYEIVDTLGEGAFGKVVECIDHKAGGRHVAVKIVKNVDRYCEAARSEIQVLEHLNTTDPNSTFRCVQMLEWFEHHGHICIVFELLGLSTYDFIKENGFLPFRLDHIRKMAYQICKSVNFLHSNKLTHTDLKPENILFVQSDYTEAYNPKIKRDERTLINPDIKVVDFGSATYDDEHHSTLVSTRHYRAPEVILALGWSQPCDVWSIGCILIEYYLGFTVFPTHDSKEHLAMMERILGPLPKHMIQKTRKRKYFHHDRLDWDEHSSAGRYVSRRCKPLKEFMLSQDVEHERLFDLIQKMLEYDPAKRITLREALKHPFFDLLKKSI
Chain of Phosphatidylinositol 4,5-bisphosphate 3-kinase catalytic subunit gamma isoform (Homo sapiens) (P48736 whole entry, looked up, canonical isoform): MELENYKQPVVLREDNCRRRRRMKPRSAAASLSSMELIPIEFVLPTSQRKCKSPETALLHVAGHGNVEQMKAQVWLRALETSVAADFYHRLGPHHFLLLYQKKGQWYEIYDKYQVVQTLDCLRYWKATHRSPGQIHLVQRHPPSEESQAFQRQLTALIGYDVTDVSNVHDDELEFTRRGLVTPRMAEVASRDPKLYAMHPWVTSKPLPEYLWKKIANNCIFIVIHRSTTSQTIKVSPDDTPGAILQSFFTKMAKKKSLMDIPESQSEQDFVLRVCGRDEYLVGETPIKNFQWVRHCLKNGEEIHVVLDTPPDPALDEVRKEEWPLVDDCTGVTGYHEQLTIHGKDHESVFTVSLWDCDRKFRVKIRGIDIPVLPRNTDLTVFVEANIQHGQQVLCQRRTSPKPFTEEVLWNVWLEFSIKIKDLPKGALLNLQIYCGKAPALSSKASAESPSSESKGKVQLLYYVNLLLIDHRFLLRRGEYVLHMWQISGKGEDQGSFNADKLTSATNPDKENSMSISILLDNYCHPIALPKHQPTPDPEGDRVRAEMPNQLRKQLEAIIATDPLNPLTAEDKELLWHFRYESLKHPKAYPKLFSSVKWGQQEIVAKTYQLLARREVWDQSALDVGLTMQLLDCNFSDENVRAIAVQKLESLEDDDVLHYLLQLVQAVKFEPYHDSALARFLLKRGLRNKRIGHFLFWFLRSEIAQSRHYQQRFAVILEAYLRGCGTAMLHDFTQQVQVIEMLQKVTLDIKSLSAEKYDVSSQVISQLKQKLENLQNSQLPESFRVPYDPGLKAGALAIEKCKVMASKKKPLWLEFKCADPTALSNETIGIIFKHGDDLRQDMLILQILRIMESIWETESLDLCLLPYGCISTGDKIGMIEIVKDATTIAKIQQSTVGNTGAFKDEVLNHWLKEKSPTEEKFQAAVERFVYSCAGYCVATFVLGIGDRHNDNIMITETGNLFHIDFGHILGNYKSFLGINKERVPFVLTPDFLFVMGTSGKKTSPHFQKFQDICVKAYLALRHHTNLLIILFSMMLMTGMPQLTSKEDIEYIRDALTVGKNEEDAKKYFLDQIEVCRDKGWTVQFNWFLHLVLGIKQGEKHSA
Chain of Calcium/calmodulin-dependent protein kinase kinase 1 (Homo sapiens) (Q8N5S9 whole entry, looked up): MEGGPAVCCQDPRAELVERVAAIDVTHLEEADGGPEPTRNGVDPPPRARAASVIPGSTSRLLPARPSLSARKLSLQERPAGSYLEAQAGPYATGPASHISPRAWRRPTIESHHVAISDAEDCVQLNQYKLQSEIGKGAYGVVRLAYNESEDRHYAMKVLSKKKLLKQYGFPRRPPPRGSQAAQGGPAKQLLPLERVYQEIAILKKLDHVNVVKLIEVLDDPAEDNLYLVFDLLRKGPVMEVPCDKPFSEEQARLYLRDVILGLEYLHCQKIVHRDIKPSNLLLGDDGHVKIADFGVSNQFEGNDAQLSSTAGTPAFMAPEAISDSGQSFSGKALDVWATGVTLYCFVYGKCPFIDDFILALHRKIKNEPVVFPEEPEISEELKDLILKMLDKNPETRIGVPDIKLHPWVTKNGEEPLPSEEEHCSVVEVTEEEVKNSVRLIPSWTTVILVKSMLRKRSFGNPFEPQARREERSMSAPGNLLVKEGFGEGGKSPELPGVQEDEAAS

CCc1ccccc1C(=O)Nc1n[nH]c2c(C)c(F)c(C3C(C#N)=C(C)N(C)C(C)=C3C#N)cc12 [BAY-3827]
inactive: [1] 99% | [2] 90% | [3] 55% | [4] 45% | [5] 76% | [6] 100% | [7] 75% | [8] 34% | [9] 108% | [10] 95% | [11] 107%
